According to the NIST ThermoML archive (doi:10.1016/j.jct.2005.07.016):
± gives the expanded uncertainty stated by the source.

Key:
[1] = Liquid
[2] = refractive index (Na D-line) (dimensionless); conditions: 298.15 K; 101.33 kPa; Liquid; Standard Abbe refractometry

Structure (SMILES)	vapor or sublimation pressure ([1]; 298.15 K) [kPa]	vapor or sublimation pressure ([1]; 303.15 K) [kPa]	vapor or sublimation pressure ([1]; 308.15 K) [kPa]	vapor or sublimation pressure ([1]; 313.15 K) [kPa]	refractive index [2]	vapor or sublimation pressure ([1]; 292.85 K) [kPa]	vapor or sublimation pressure ([1]; 295.55 K) [kPa]	vapor or sublimation pressure ([1]; 302.35 K) [kPa]	vapor or sublimation pressure ([1]; 306.25 K) [kPa]	vapor or sublimation pressure ([1]; 309.95 K) [kPa]	vapor or sublimation pressure ([1]; 313.65 K) [kPa]	vapor or sublimation pressure ([1]; 291.95 K) [kPa]	vapor or sublimation pressure ([1]; 295.15 K) [kPa]	vapor or sublimation pressure ([1]; 299.35 K) [kPa]	vapor or sublimation pressure ([1]; 307.05 K) [kPa]	vapor or sublimation pressure ([1]; 310.45 K) [kPa]	vapor or sublimation pressure ([1]; 316.75 K) [kPa]
CC(Cl)(Cl)Cl [1,1,1-trichloroethane]	16.69 ± 0.35	20.34 ± 0.41	25.22 ± 0.49	30.78 ± 0.57	1.4354 ± 0.0007	–	–	–	–	–	–	–	–	–	–	–	–
ClCCCl [1,2-dichloroethane]	10.47 ± 0.25	13.34 ± 0.91	16.77 ± 1.1	20.88 ± 1.3	1.4421 ± 0.0007	8.09 ± 0.21	9.23 ± 0.23	12.81 ± 0.29	15.46 ± 0.33	18.17 ± 0.37	21.29 ± 0.42	–	–	–	–	–	–
O=C1CCCC1 [cyclopentanone]	1.61 ± 0.33	2.03 ± 0.11	2.68 ± 0.38	3.41 ± 0.13	1.4347 ± 0.0007	–	–	–	–	–	–	1.16 ± 0.1	1.5 ± 0.1	1.65 ± 0.11	2.6 ± 0.12	3 ± 0.13	4.03 ± 0.14
